ChEMBL document CHEMBL1201862, “PubChem BioAssay data set” (2004)
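In this assay, cells in 96-well plates receive the compound at five concentrations for 48 hours. Endpoints are linearly interpolated between the surrounding concentrations. Abbreviation: GI50, concentration required for 50% inhibition of growth.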 Activity calls are given as the source filed them. No stated cut-off is given here; in the data, active = GI50 up to about 1.1 µM and inactive = higher.

Legend:
Assay in all cases: DTP human tumour cell line panel, 48 h
[1] = test system: UACC-257
[2] = test system: IGROV-1
[3] = test system: MOLT-4
[4] = test system: SF-268
[5] = test system: ACHN
[6] = test system: KM12
[7] = test system: CAKI-1
[8] = test system: SNB-19
[9] = test system: DU-145
[10] = test system: SNB-75
[11] = test system: OVCAR-3
[12] = test system: SK-MEL-28
[13] = test system: SR
[14] = test system: MDA-N
[15] = test system: RPMI-8226
[16] = test system: K562
[17] = test system: HL-60
[18] = test system: Malme-3M
[19] = test system: SF-295
[20] = test system: NCI-H522

Row | Structure (SMILES) | GI50 [1] | GI50 [2] | GI50 [3] | GI50 [4] | GI50 [5] | GI50 [6] | GI50 [7] | GI50 [8] | GI50 [9] | GI50 [10] | GI50 [11] | GI50 [12] | GI50 [13] | GI50 [14] | GI50 [15] | GI50 [16] | GI50 [17] | GI50 [18] | GI50 [19] | GI50 [20]
1 | Cc1ccc(-c2cc(C(F)(F)F)nn2-c2ccc(S(N)(=O)=O)cc2)cc1 [CELECOXIB] | 19.7 µM (inactive) | 15.4 µM (inactive) | 17.3 µM (inactive) | 16.9 µM (inactive) | 17.5 µM (inactive) | 15.1 µM (inactive) | 19.6 µM (inactive) | 18 µM (inactive) | 16.3 µM (inactive) | 15.6 µM (inactive) | 17.6 µM (inactive) | 17.6 µM (inactive) | 16.1 µM (inactive) | 17.1 µM (inactive) | 3.85 µM (inactive) | 10.1 µM (inactive) | 14.8 µM (inactive) | 18.6 µM (inactive) | 16.6 µM (inactive) | 
2 | C/C(=N\c1ccc(N(C)C)cc1)c1ccccc1 | > 10 µM (inactive) | 25.7 µM (inactive) | 23.9 µM (inactive) | > 10 µM (inactive) | 26.2 µM (inactive) | 31.8 µM (inactive) | 19.8 µM (inactive) | 86.3 µM (inactive) | 34.9 µM (inactive) | 22.8 µM (inactive) | 17.8 µM (inactive) | 33.7 µM (inactive) | 19.2 µM (inactive) | 21.9 µM (inactive) |  | 21.3 µM (inactive) | 16.4 µM (inactive) | 10.9 µM (inactive) | 31.9 µM (inactive) | 16.7 µM (inactive)
3 | O=C(c1ccccc1)N1CCC(CC2(c3cc4ccccc4[nH]3)OCCO2)CC1 | 27.5 µM (inactive) | 42.2 µM (inactive) | 19.5 µM (inactive) | 51.8 µM (inactive) | 65.8 µM (inactive) | 34.2 µM (inactive) | > 100 µM (inactive) | 67.9 µM (inactive) | > 100 µM (inactive) | 47.1 µM (inactive) | > 100 µM (inactive) | 19.4 µM (inactive) | 33 µM (inactive) | 26.2 µM (inactive) | 2.52 µM (inactive) | 16.3 µM (inactive) |  |  | 39.4 µM (inactive) | 
4 | CCOC(=O)c1ccc(NCC#CCN2CCOCC2)cc1 |  | > 100 µM (inactive) | > 100 µM (inactive) | > 100 µM (inactive) | 46 µM (inactive) | > 100 µM (inactive) |  | > 100 µM (inactive) | > 100 µM (inactive) |  | > 100 µM (inactive) | > 100 µM (inactive) | > 100 µM (inactive) | 29.4 µM (inactive) | > 100 µM (inactive) | 38.6 µM (inactive) | 48.1 µM (inactive) | > 100 µM (inactive) |  | 
5 | CC(=O)C(=[N+]=[N-])C(=O)N(C)CCC#N | > 10 µM (inactive) | > 10 µM (inactive) | > 10 µM (inactive) | > 10 µM (inactive) | > 10 µM (inactive) | > 10 µM (inactive) |  | > 10 µM (inactive) | > 10 µM (inactive) | 0.118 µM (active) | > 10 µM (inactive) | > 10 µM (inactive) | > 10 µM (inactive) | > 10 µM (inactive) | > 10 µM (inactive) | > 10 µM (inactive) | > 10 µM (inactive) | > 10 µM (inactive) | > 10 µM (inactive) | 
6 | O=C1c2ccccc2C(=O)N1CCc1nc(-c2ccccc2)c[nH]1 | > 100 µM (inactive) | > 100 µM (inactive) | > 100 µM (inactive) | > 100 µM (inactive) | > 100 µM (inactive) | > 100 µM (inactive) | > 100 µM (inactive) | > 100 µM (inactive) | > 100 µM (inactive) | > 100 µM (inactive) | > 100 µM (inactive) | > 100 µM (inactive) | > 100 µM (inactive) | > 100 µM (inactive) |  | > 100 µM (inactive) | > 100 µM (inactive) | 24.8 µM (inactive) | > 100 µM (inactive) | > 100 µM (inactive)
7 | COc1ccc(C2=CC(C(C)=C(C(N)=O)C(N)=O)C=C(c3ccc(Br)cc3)C2)c(OC)c1 (stereo unspecified) | > 100 µM (inactive) | 94.6 µM (inactive) | > 100 µM (inactive) | > 100 µM (inactive) | > 100 µM (inactive) | > 100 µM (inactive) | > 100 µM (inactive) | > 100 µM (inactive) | > 100 µM (inactive) | 66.1 µM (inactive) | > 100 µM (inactive) | > 100 µM (inactive) | > 100 µM (inactive) | > 100 µM (inactive) | > 100 µM (inactive) | > 100 µM (inactive) | > 100 µM (inactive) |  | > 100 µM (inactive) | > 100 µM (inactive)
